Columns and labels:
[1] = tested on: mice bearing PSMA-expressing LNCAP cancer xenografts; experiment: Biodistribution of 68Ga-labeled compounds; format: in vivo
Method in brief: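 NOD-SCID IL2RγKO male mice carried subcutaneous LNCaP xenografts grown to 5-8 mm over 5-6 weeks. Organs and blood were collected at 1 or 3 h after injection of the radiotracer and gamma-counted. Uptake was normalized to injected dose via a standard curve and expressed as %ID/g.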

[2] = tested on: mice bearing LNCaP tumor xenografts; experiment: PET/CT imaging of 68Ga-labeled compounds; format: in vivo
Procedure: 2.17 PET/CT Imaging and Biodistribution
Imaging and biodistribution experiments were performed using NODSCID 1L2RyKO male mice. Mice were anesthetized by inhalation with 2% isoflurane in oxygen, and implanted subcutaneously with 1×10^7 LNCaP cells behind left shoulder. Mice were imaged or used in biodistribution studies when the tumor grew up to reach 5-8 mm in diameter during 5-6 weeks.
PET imaging experiments were conducted using Siemens Inveon micro PET/CT scanner. Each tumor bearing mouse was injected 6-8 MBq of 68Ga-labeled tracer through the tail vein under anesthesia (2% isoflurane in oxygen). The mice were allowed to recover and roam freely in their cage. After 50 min, the mice were sedated again with 2% isoflurane in oxygen inhalation and positioned in the scanner. A 10-min CT scan was conducted first for localization and attenuation correction after segmentation for reconstructing the PET images. Then, a 10-min static PET imaging was performed to determined uptake in tumor and other organs. The mice were kept warm by a heating pad during acquisition. For imaging studies acquired at 3 h post-injection (p.i.), the mice were placed in the micro PET/CT scanner at 170 min p.i. Then, the CT acquisitions were conducted as described above, a 15-min static PET imaging was performed to determined uptake in tumor and other organs.

Adrenal glands uptake ([1]; 1 h post-injection): 3.78 ± 0.46 % ID/g | Blood uptake ([1]; 1 h post-injection): 4.68 ± 1.09 % ID/g | Bone uptake ([1]; 1 h post-injection): 0.76 ± 0.14 % ID/g | Brain uptake ([1]; 1 h post-injection): 0.10 ± 0.03 % ID/g | Fat uptake ([1]; 1 h post-injection): 0.87 ± 0.53 % ID/g | Heart uptake ([1]; 1 h post-injection): 1.29 ± 0.34 % ID/g | Intestine uptake ([1]; 1 h post-injection): 0.60 ± 0.14 % ID/g | Kidneys uptake ([1]; 1 h post-injection): 123 ± 30.4 % ID/g | Lacrimal uptake ([1]; 1 h post-injection): 1.35 ± 0.43 % ID/g | Liver uptake ([1]; 1 h post-injection): 1.02 ± 0.34 % ID/g | Lungs uptake ([1]; 1 h post-injection): 3.28 ± 0.85 % ID/g | Muscle uptake ([1]; 1 h post-injection): 0.53 ± 0.11 % ID/g | Pancreas uptake ([1]; 1 h post-injection): 0.85 ± 0.15 % ID/g | Salivary uptake ([1]; 1 h post-injection): 3.34 ± 0.89 % ID/g | Seminal uptake ([1]; 1 h post-injection): 0.74 ± 0.39 % ID/g | Spleen uptake ([1]; 1 h post-injection): 3.92 ± 0.88 % ID/g | Stomach uptake ([1]; 1 h post-injection): 0.27 ± 0.10 % ID/g | Tail uptake ([1]; 1 h post-injection): 1.43 ± 0.34 % ID/g | Testes uptake ([1]; 1 h post-injection): 0.98 ± 0.22 % ID/g | Thyroid uptake ([1]; 1 h post-injection): 1.49 ± 0.44 % ID/g | Tumor uptake ([1]; 1 h post-injection): 25.9 ± 3.21 % ID/g | Tumor:Blood ratio ([1]; 1 h post-injection): 5.67 ± 0.97 | Tumor:Muscle ratio ([1]; 1 h post-injection): 49.7 ± 5.98 | Tumor:kidney ratio ([1]; 1 h post-injection): 0.22 ± 0.04 | Urine uptake ([1]; 1 h post-injection): 203 ± 88.0 % ID/g | Adrenal glands uptake ([1]; 3 h post-injection): 3.95 ± 2.28 % ID/g | Blood uptake ([1]; 3 h post-injection): 1.17 ± 0.36 % ID/g | Bone uptake ([1]; 3 h post-injection): 1.93 ± 1.51 % ID/g | Brain uptake ([1]; 3 h post-injection): 0.12 ± 0.05 % ID/g | Fat uptake ([1]; 3 h post-injection): 0.58 ± 0.13 % ID/g | Heart uptake ([1]; 3 h post-injection): 0.59 ± 0.26 % ID/g | Intestine uptake ([1]; 3 h post-injection): 0.34 ± 0.04 % ID/g | Kidneys uptake ([1]; 3 h post-injection): 31.1 ± 15.2 % ID/g | Lacrimal uptake ([1]; 3 h post-injection): 3.01 ± 1.26 % ID/g | Liver uptake ([1]; 3 h post-injection): 0.43 ± 0.08 % ID/g | Lungs uptake ([1]; 3 h post-injection): 1.39 ± 0.53 % ID/g | Muscle uptake ([1]; 3 h post-injection): 0.46 ± 0.30 % ID/g | Pancreas uptake ([1]; 3 h post-injection): 0.41 ± 0.09 % ID/g | Salivary uptake ([1]; 3 h post-injection): 2.06 ± 1.16 % ID/g | Seminal uptake ([1]; 3 h post-injection): 0.29 ± 0.08 % ID/g | Spleen uptake ([1]; 3 h post-injection): 2.10 ± 1.16 % ID/g | Stomach uptake ([1]; 3 h post-injection): 0.14 ± 0.03 % ID/g | Tail uptake ([1]; 3 h post-injection): 0.54 ± 0.22 % ID/g | Testes uptake ([1]; 3 h post-injection): 0.56 ± 0.19 % ID/g | Thyroid uptake ([1]; 3 h post-injection): 0.72 ± 0.29 % ID/g | Tumor uptake ([1]; 3 h post-injection): 32.9 ± 10.9 % ID/g | Tumor:Blood ratio ([1]; 3 h post-injection): 30.4 ± 13.2 | Tumor:Muscle ratio ([1]; 3 h post-injection): 98.6 ± 61.8 | Tumor:kidney ratio ([1]; 3 h post-injection): 1.22 ± 0.53 | Urine uptake ([1]; 3 h post-injection): 275 ± 158 % ID/g | change of tumor uptake from 1 h to 3 h post-injection ([2]; PET/CT images): uptake in tumors increases over time | blood retention (qualitative) ([2]; PET/CT images at 1 h and 3 h post-injection, comparison within the figure): some extent of blood retention
SMILES: O=C([O-])CN1CCN(CC(=O)[O-])CCN(CC(=O)NCCCC[C@H](NC(=O)CNC(=O)CCCc2ccccc2)C(=O)NC[C@H]2CC[C@H](C(=O)N[C@@H](Cc3ccc4ccccc4c3)C(=O)NCCCC[C@H](NC(=O)N[C@@H](CCC(=O)O)C(=O)O)C(=O)O)CC2)CCN(CC(=O)[O-])CC1.[68Ga+3] [^68Ga-HTK03056]

Source: patent US20200339625A1, “NOVEL RADIOMETAL-BINDING COMPOUNDS FOR DIAGNOSIS OR TREATMENT OF PROSTATE SPECIFIC MEMBRANE ANTIGEN-EXPRESSING CANCER” (PROVINCIAL HEALTH SERVICES AUTHORITY, priority 2017, published 2020)
